Laboratory results published in patent publication US20190062761A1, “ULTRASOUND METHOD” (INSTITUTE OF SCIENCE AND TECHNOLOGY AUSTRIA (IST AUSTRIA), priority 2016, published 2019).

Tests used:
[1] = test system: light-activated gene transcription plasmid pDAWN; experiment: Induction of mCherry expression by SCL and pDAWN in E. coli; format: cell-based
Method: (§1) For starting cultures, E. coli BL21 (DE) cells transformed with pDAWN were grown overnight (225 rpm, 37° C.) in LB medium (pH 7.0; Sigma) supplemented with 50 μg/ml kanamycin (Sigma). Cells were then diluted 100-fold in fresh LB medium (pH 8.0) and growth was allowed to reach OD600˜0.4 (7.3×10^7 CFU/ml) under non-inducing conditions (i.e. in the dark). For US experiments, 250 ml of these cultures were centrifuged (4700 rpm, 5 min) and resuspended in 200 ml M9 minimal medium (1×M9 salts, 2 mM MgSO4, 0.1 mM CaCl2, 0.4% glucose, buffered with 0.05 M Tris, pH 9.0). Each culture was treated with US for 3 h. After stimulation, aliquots (50 ml) were centrifuged, resuspended (in M9 minimal media) and incubated in 96-well plates overnight under non-inducing conditions (dark) to allow mCherry maturation.

E. coli = conditions: treatment with US and luminol for 3 h (20 mM luminol, pH 9), M9 minimal media
Method: as §1
OD600 and mCherry fluorescence emission spectra (λex=543±10 nm, λem=575 to 695 nm in 10 nm increments) were measured with a (Biotek Synergy H1) microplate reader in a black 96-well flat-bottom plates (typical volume was 200 μl).

M38K^Opto-mFGFR1 cells = experiment: EMT-like morphology changes (aspect ratio) in M38K Opto-mFGFR1 cells in response to luminol SCL; format: cell-based
Method: After additional 24 h, cells were photographed on the Nikon Ti300 microscope.

Q: Which “induction of mCherry production (increase compared to control experiments)” value ([1]; {}) does the source give for `Nc1cccc2c(=O)[nH][nH]c(=O)c12` [luminol, 5-Amino-2,3-dihydro-1,4-phthalazinedione] here?
A: ~5 fold

Q: What about the “reduction of E. coli viability indicators (OD600 and CFUs)” value (E. coli) of the same compound?
A: ~50%

Q: What about the “morphological changes in M38K^Opto-mFGFR1 cells” value (M38K^Opto-mFGFR1 cells; luminol SCL, two chambers configuration, 20 mM luminol, US 585 kHz, 64% amplitude, 3 h) of the same compound?
A: induced epithelial-mesenchymal transition (EMT)-like morphological changes

Q: How did the “effect of luminol SCL on cell morphology after pre-treatment with inhibitor” value (M38K^Opto-mFGFR1 cells; 10 μM for 1 h before US stimulation (585 kHz, 64% amplitude, 3 h)) turn out when `COc1cc(OC)cc(-c2cc3cnc(N)nc3nc2NC(=O)NC(C)(C)C)c1` [PD166866] was run?
A: abolished

Q: `COc1ccc(-c2cn3c(=O)c(C)nc-3c[nH]2)cc1.Cl` [MCLA, 6-(4-Methoxyphenyl)-2-methyl-3,7-dihydroimidazo[1,2-a]pyrazin-3-one Hydrochloride] was tested. Which “induction of mCherry expression” value ([1]; MCLA-catalyzed SCL, pDAWN-V28I, 2 h US stimulation, 2 μM MCLA, pH 7) did it give?
A: two
